The values below come from patent US20220220561A1, “METHODS AND CLINICAL PROTOCOLS AND KITS PERTAINING TO MAKING AND USING THERAPEUTIC COMPOSITIONS FOR CELLULAR TREATMENT” (ADVANCED REGEN MEDICAL TECHNOLOGIES, LLC, priority 2019, published 2022).

As a reminder, the viability is a read-out of living cells in per cent, often relative to untreated cells.

The test system of data set [1] is serine-threonine protein phosphatases. To be noted: cited from earlier work.
In another data set the test system is Aged TNCs. Briefly: cell count and Trypan blue viability of aged TNCs cultured with CaMKP inhibitor. Type of data set: cell-based, human. As for the experimental part:
Aged TNCs (20×10^6 cells per sample) were cultured with CaMKP inhibitor (FT-0640107 shown below) at the following concentrations 25 uM, 10 uM, 5 uM, 1 uM & 0 (vehicle). After 48 and 72 hours, cells were harvested, counted using Turk's solution and percent viability assessed using Trypan blue exclusion.
At 72 hours following treatment with the CaMPK inhibitor, FT-0640107, or vehicle, cells were harvested, counted and viability measured using Trypan blue exclusion.

The next data set deals with heterochronic cultures. Description: exosome production, total RNA and miRNA payload in heterochronic cultures. Type of data set: cell-based, human.
A further data set relates to Restored cells. Description: transwell co-culture restoration in the presence or absence of manumycin. The data set is classed as cell-based, human. The source says: Receiver cell samples (i.e., R1, R2, and R3) were individually paired with donor cell samples (i.e., D1, D2, and D3) and the pairs co-cultured in a transwell culture cell for four weeks. The morphology of the cells was studied at 2 weeks into the co-culture and at 4 weeks of co-culture. Gene expression arrays, protein arrays, and telomere length experiments compared freshly defrosted cells from the collection tubes (referred to as the baseline donor cell sample or baseline receiver cell sample) with cells at the 4-week study endpoint (referred to as restored cell samples).
The nature of the soluble particles passing through the permeable membrane in the transwell co-culture experiments was investigated. Specifically, transwell co-culture experiments were carried out in the presence or absence of manumycin. Manumycin, N-[(1S,5S,6R)-5-hydroxy-5-[(1E,3E,5E)-7-[(2-hydroxy-5-oxo-1-cyclopenten-1-yl)amino]-7-oxo-1,3,5-heptatrien-1-yl]-2-oxo-7-oxabicyclo[4.1.0]hept-3-en-3-yl]-2E,4E,6R-trimethyl,2,4-decadienamide, is an antibiotic that acts a potent and selective farnesytransferase inhibitor. Manumycin is also known to inhibit the release of exosomes. […] Further support for the role of exosome/microvesicles in mediating the disclosed cellular restoration process is shown in FIG. 55.

As for `O=C(/C=C/c1ccc(/C=C/C(=O)Nc2ccc(C3=NCCN3)cc2)cc1)Nc1ccc(C2=NCCN2)cc1` [GW4869], the “toxicity to aged cultures” value in the data set on aged MPB was “extremely toxic”. Moreover, the restorative phenotype result in the data set with aged MPB (blocking global exosome production, data not shown) is “abrogated the restorative phenotype”.

With dragmacidin D, the “inhibition of serine-threonine protein phosphatases” value in data set [1] was “potent inhibitor”.

With `Nc1c(S(=O)(=O)O)cc(S(=O)(=O)[O-])c2cccc(O)c12.[Na+]` [FT-0640107], the cell number entry with Aged TNCs (1 μM, 72 hours, vs vehicle control and 25 μM, donor A04) is reported as “increase in cell number”. In the data set on Aged TNCs (Homo sapiens, 1 μM, 72 hours, donor A04), this compound gave a viability at 1 µM of 96.3%. The same compound had a viability at 25 µM in the data set with Aged TNCs (Homo sapiens, 25 μM, 72 hours, donor A04) of 93%. The “cell viability and number” value in the data set on Aged TNCs (donor A03, 48 or 72 hour) is recorded as “no significant difference”.

`CC(NS(=O)(=O)c1ccc2[nH]c(=O)c(=O)[nH]c2c1)C(=O)O` (centres unmarked) [BCI-137]: in the data set on aged MPB (heterochronic cultures treated with inhibitor), the “aged MPB clonogenicity” value was “significant decrease”. Further, in the data set on heterochronic cultures, the “exosome production and total RNA content” value is “minimal effect”; the “small and miRNA payload” value is listed as “depleted”.

Take `CCCC[C@@H](C)/C=C(C)/C=C(\C)C(=O)NC1=C[C@@](O)(/C=C/C=C/C=C/C(=O)NC2=C(O)CCC2=O)[C@@H]2O[C@@H]2C1=O` [manumycin, N-[(1S,5S,6R)-5-hydroxy-5-[(1E,3E,5E)-7-[(2-hydroxy-5-oxo-1-cyclopenten-1-yl)amino]-7-oxo-1,3,5-heptatrien-1-yl]-2-oxo-7-oxabicyclo[4.1.0]hept-3-en-3-yl]-2E,4E,6R-trimethyl,2,4-decadienamide]: the “morphology of restored cells” value in the data set on Restored cells (5 μM) is on record as “less robust morphology”. For the same compound, the telomere length entry in the data set with Restored cells (restored cell sample) is on record as “decreased”. In the data set with Restored cells (vs absence of manumycin), the “protein expression of restored cell samples” value is reported as “elevated levels of all proteins investigated”. Also, the “gene expression of restored cell samples” value in the data set on Restored cells (vs changes seen in the absence of manumycin) was “did not display a change in expression levels”.
